Reference: paper PMC7307922 (Journal of Medicinal Chemistry, 2020)
Values after ≈ are worked out from the molar mass of the structure shown. Read-outs that look alike come from different tables or passages of the source.

Experiments:
[1] = Kinetic aqueous solubility in PBS pH 7.4; type: physicochemical; conditions: for solubility: pH 7.4, read-out: Aq. solub.
Experimental: (§1) Solubility and log D7.4 measurements were performed in accordance to the previously published procedures.[35]

[2] = log D7.4 measurement; type: physicochemical; conditions: pH 7.4; read-out: logD7.4
Experimental: as §1

[3] = Stability toward mouse liver microsomes; conditions: remaining after 40 min incubation with MLMs
Experimental: The study was performed by Bienta (www.bienta.net). Mouse hepatic microsomes were isolated from pooled and perfused livers of male BALB/c mice (n = 50). Isolation was performed according to the standard protocol.[36]
Microsomal incubations were carried out in 96-well plates in 5 aliquots of 40 μL each (one for each time point). Liver microsomal incubation medium comprised PBS (100 mM, pH 7.4), MgCl2 (3.3 mM), NADPH (3 mM), glucose-6-phosphate (5.3 mM), and glucose-6-phosphate dehydrogenase (0.67 units/mL) with 0.42 mg of liver microsomal protein per ml. In the control reactions, the NADPH-cofactor system was substituted with PBS. […] Each reaction was performed in duplicates. Five time points over 40 min were analyzed. The reactions were stopped by adding 12 volumes of 90% acetonitrile–water to incubation aliquots, followed by protein sedimentation by centrifuging at 5500 rpm for 3 min. […]. Supernatants were analyzed using HPLC-MS/MS on an API 3000 PE instrument.

[4] = target: T1, hFFA3 (Homo sapiens, UniProt O14843); test: cell-based; conditions: for Emax: HEK293, read-out: cAMP Emax; for cAMP pEC50: hFFA3, compound alone, mean of ≥3 independent experiments ± standard error
T1 sequence (O14843 1-346): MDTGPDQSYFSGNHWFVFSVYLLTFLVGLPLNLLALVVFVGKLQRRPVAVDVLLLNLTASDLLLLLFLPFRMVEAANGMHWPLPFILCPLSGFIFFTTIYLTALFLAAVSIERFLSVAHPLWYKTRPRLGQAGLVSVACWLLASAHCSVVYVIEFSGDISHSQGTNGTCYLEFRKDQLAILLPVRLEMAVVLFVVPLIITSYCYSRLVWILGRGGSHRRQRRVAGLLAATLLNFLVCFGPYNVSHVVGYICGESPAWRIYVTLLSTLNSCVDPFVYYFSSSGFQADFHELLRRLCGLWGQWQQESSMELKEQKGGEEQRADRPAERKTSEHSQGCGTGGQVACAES
Experimental: (§2) The ligands were initially screened in a human FFA3-dependent [^35S]GTPγS binding assay as this assay reflects receptor-mediated activation of Gi/o proteins and is known to generally correlate well with ligand affinity.[30] Analogues of particular interest were tested further in a cAMP inhibition assay as this is an important downstream effect of Gi-activation. […] It is furthermore performed in whole cells, is more downstream, includes G protein signal amplification, and therefore better reflects a more natural ligand–receptor response.
HEK293 Flp-In T-Rex cells stably transfected with FFA3-eYFP receptors were incubated overnight with doxycycline to induce expression, then harvested, and cryopreserved. On the day of each experiment, cells were thawed and resuspended in stimulation buffer. Assays were carried out using a 384-well plate format with 3000 cells/well using the CisBio cAMP GS dynamic kit as per manufacturer’s protocol. Compounds were tested for the ability to inhibit 0.3 μM forskolin-induced cAMP production after co-incubation for 1 h. Reactions were measured using a PHERAstar FS plate reader (BMGLabtech, Aylesbury, UK).

[5] = target: T1, hFFA3; test: biochemical; conditions: for GTPγS pEC50: hFFA3, mean of ≥3 independent experiments ± standard error; for Emax: read-out: GTPγS Emax
Experimental: as §2
Membranes were isolated from Flp-In T-REx HEK293 cells treated with 100 ng/mL doxycycline to induce receptor expression. Cells were washed with ice-cold phosphate-buffered saline and removed from dishes by scraping before being centrifuged for 5 min at 4 °C, 3000 rpm. Pellets were resuspended in TE buffer (75 mM Tris–HCl, 5 mM EDTA; pH 7.5) with the addition of a protease inhibitor mixture (Roche Applied Science, West Sussex, UK). This was then homogenized with a 5 mL hand-held homogenizer and subsequently centrifuged at 1500 rpm for 5 min at 4 °C, from which the supernatant was collected and further centrifuged at 50 000 rpm for 30 min at 4 °C. The resulting pellet was resuspended in TE buffer, and the protein content was measured using a BCA protein assay kit (Pierce, Fisher Scientific, Loughborough, UK).
Reactions were initiated with the addition of [^35S]GTPγS at 50 nCi per tube; reactions were terminated after 1 h of incubation at 25 °C by rapid filtration through GF/C glass filters using a 24-well Brandel cell harvester (Alpha Biotech, Glasgow, UK). Unbound radioligand was removed from filters by washing three times with ice-cold wash buffer (50 mM Tris–HCl, pH 7.4, and 10 mM MgCl2), and [^35S]GTPγS binding was determined by liquid scintillation spectrometry.

## CC1=C(C(=O)Nc2cc(Cl)ccc2Cl)C(c2nccs2)C2=C(CCCC2=O)N1 (stereo not shown) [Compound 47, N-(2,5-Dichlorophenyl)-2-methyl-5-oxo-4-(thiazol-2-yl)-1,4,5,6,7,8-hexahydroquinoline-3-carboxamide]
[1]
  solubility: 1 µM (≈ 0.434 µg/mL)
[1]; phosphate buffered saline
  solubility: 2 µM (≈ 0.869 µg/mL)
[2]
  logD at 24 h: 3.39
[3]
  MLM (%) remaining: 2%

## CCCC1C(C(=O)Nc2ccccc2Cl)=C(C)NC2=C1C(=O)CCC2 (stereo not shown) [Compound 58, N-(2-Chlorophenyl)-2-methyl-5-oxo-4-propyl-1,4,5,6,7,8-hexahydroquinoline-3-carboxamide]
[1]; kinetic solubility
  increase of solubility compared to 57: 4–5 fold
[1]; phosphate buffered saline
  solubility: 169 µM (≈ 60.6 µg/mL)
[2]
  logD at 24 h: 3.22
[4]
  Emax: 105%
  cAMP pEC50: 6.06 ± 0.05

## CC1=C(C(=O)Nc2ccccc2)C(c2ccco2)C2=C(CCCC2=O)N1 (stereo not shown) [Compound 12]
[5]
  GTPγS pEC50: 5.11 ± 0.12
  Emax: 81%
[5]; relative to 1
  drop in potency on replacement of o-tolyl (1): > 3 fold
[4]
  Emax: 97%
  cAMP pEC50: 5.45 ± 0.03

## CC1=C(C(=O)Nc2ccccc2I)C(CC(C)C)C2=C(CCCC2=O)N1 (stereo not shown) [Compound 19, N-(2-Iodophenyl)-4-isobutyl-2-methyl-5-oxo-1,4,5,6,7,8-hexahydroquinoline-3-carboxamide]
[5]
  GTPγS pEC50: 5.41 ± 0.15
  Emax: 129%
[4]
  EC50: 2690 nM
  Emax: 89%

## CC1=C(C(=O)Nc2cccc(C)c2)C(c2ccco2)C2=C(CCCC2=O)N1 (stereo not shown) [Compound 13, 4-(Furan-2-yl)-2-methyl-5-oxo-N-(m-tolyl)-1,4,5,6,7,8-hexahydroquinoline-3-carboxamide]
[5]
  GTPγS pEC50: 5.34 ± 0.15
  Emax: 78%
[4]
  Emax: 100%
  cAMP pEC50: 5.80 ± 0.04

## CC1=C(C(=O)Nc2cc(Cl)ccc2Cl)C(c2cocn2)C2=C(CCCC2=O)N1 (stereo not shown) [Compound 50, N-(2,5-Dichlorophenyl)-2-methyl-4-(oxazol-4-yl)-5-oxo-1,4,5,6,7,8-hexahydroquinoline-3-carboxamide]
[1]; kinetic solubility
  increase of solubility relative to 16: > 10 fold
[1]; phosphate buffered saline
  solubility: 62 µM (≈ 25.9 µg/mL)
[2]
  logD at 24 h: 2.84
[4]
  Emax: 97%
  cAMP pEC50: 5.78 ± 0.03

## CC1=C(C(=O)Nc2ccccc2C)C(c2cccc(Br)c2)C2=C(CCCC2=O)N1 (stereo not shown) [Compound 6, 4-(3-Bromophenyl)-2-methyl-5-oxo-N-(o-tolyl)-1,4,5,6,7,8-hexahydroquinoline-3-carboxamide]
[5]
  GTPγS pEC50: 5.49 ± 0.08
  Emax: 89%
[4]
  Emax: 99%
  cAMP pEC50: 5.87 ± 0.06

## CC1=C(C(=O)Nc2ccccc2C)C(CC(C)C)C2=C(CCCC2=O)N1 (stereo not shown) [Compound 17, 4-Isobutyl-2-methyl-5-oxo-N-(o-tolyl)-1,4,5,6,7,8-hexahydroquinoline-3-carboxamide]
[5]
  GTPγS pEC50: 5.68 ± 0.13
  Emax: 109%
[4]
  Emax: 109%
  cAMP pEC50: 5.00 ± 0.06
[4]; cAMP assay in the presence of 1 μM propionate
  PAM pEC50: 6.28 ± 0.14
[4]; cAMP vs GTPγS data
  lower potency in cAMP assay versus GTPγS assay: 5 fold

## CCc1ccc(C2C(C(=O)Nc3ccccc3C)=C(C)NC3=C2C(=O)CCC3)cc1 (stereo not shown) [Compound 11, 4-(4-Ethylphenyl)-2-methyl-5-oxo-N-(o-tolyl)-1,4,5,6,7,8-hexahydroquinoline-3-carboxamide]
[5]
  GTPγS pEC50: 4.08 ± 0.26
  Emax: 143%
[4]
  Emax: 96%
  cAMP pEC50: 5.17 ± 0.08

## CC1=C(C(=O)Nc2cc(Cl)ccc2Cl)C(c2cscn2)C2=C(CCCC2=O)N1 (stereo not shown) [Compound 49, N-(2,5-Dichlorophenyl)-2-methyl-5-oxo-4-(thiazol-4-yl)-1,4,5,6,7,8-hexahydroquinoline-3-carboxamide]
[1]; phosphate buffered saline
  solubility: < 1 µM
[2]
  logD at 24 h: 3.28
[4]
  Emax: 95%
  cAMP pEC50: 5.71 ± 0.08

## CCCC1C(C(=O)Nc2cc(C)ccc2Cl)=C(C)NC2=C1C(=O)CCC2 (stereo not shown) [Compound 60, N-(2-Chloro-5-methylphenyl)-2-methyl-5-oxo-4-propyl-1,4,5,6,7,8-hexahydroquinoline-3-carboxamide]
[1]; phosphate buffered saline
  solubility: 145 µM (≈ 54.1 µg/mL)
[2]
  logD at 24 h: 3.57
[4]
  Emax: 103%
  cAMP pEC50: 6.19 ± 0.10

## CC1=C(C(=O)Nc2ccc(C)cc2)C(c2ccco2)C2=C(CCCC2=O)N1 (stereo not shown) [Compound 14, 4-(Furan-2-yl)-2-methyl-5-oxo-N-(p-tolyl)-1,4,5,6,7,8-hexahydroquinoline-3-carboxamide]
[5]
  GTPγS pEC50: 5.27 ± 0.12
  Emax: 88%
[4]
  Emax: 100%
  cAMP pEC50: 6.16 ± 0.03

## CC1=C(C(=O)Nc2cc(Cl)ccc2Cl)C(c2cncs2)C2=C(CCCC2=O)N1 (stereo not shown) [Compound 48, N-(2,5-Dichlorophenyl)-2-methyl-5-oxo-4-(thiazol-5-yl)-1,4,5,6,7,8-hexahydroquinoline-3-carboxamide]
[1]; phosphate buffered saline
  solubility: 1 µM (≈ 0.434 µg/mL)
[2]
  logD at 24 h: 3.23
[4]
  Emax: 97%
  cAMP pEC50: 5.75 ± 0.03

## CC1=C(C(=O)Nc2ccccc2C)C(c2ccccc2)C2=C(CCCC2=O)N1 (stereo not shown) [Compound 3, 2-Methyl-5-oxo-4-phenyl-N-(o-tolyl)-1,4,5,6,7,8-hexahydroquinoline-3-carboxamide]
[5]
  GTPγS pEC50: 4.75 ± 0.11
  Emax: 103%
[4]
  Emax: 98%
  cAMP pEC50: 5.91 ± 0.04
[4]; cAMP vs GTPγS data
  increased potency in cAMP assay versus GTPγS assay: 14 fold

## CC1=C(C(=O)Nc2ccccc2C)C(c2ccoc2)C2=C(CCCC2=O)N1 (stereo not shown) [Compound 2, reference compound]
[5]
  GTPγS pEC50: 5.24 ± 0.08
  Emax: 135%
[4]
  Emax: 97%
  cAMP pEC50: 6.27 ± 0.03
[4]; cAMP vs GTPγS data
  increased potency in cAMP assay versus GTPγS assay: 10 fold

## CCCC1C(C(=O)Nc2cccc(Cl)c2)=C(C)NC2=C1C(=O)CCC2 (stereo not shown) [Compound 59, N-(3-Chlorophenyl)-2-methyl-5-oxo-4-propyl-1,4,5,6,7,8-hexahydroquinoline-3-carboxamide]
[1]; kinetic solubility
  increase of solubility compared to 57: 4–5 fold
[1]; phosphate buffered saline
  solubility: 137 µM (≈ 49.2 µg/mL)
[2]
  logD at 24 h: 3.77
[4]
  Emax: 105%
  cAMP pEC50: 5.97 ± 0.05

## CC1=C(C(=O)Nc2ccccc2Cl)C(CC(C)C)C2=C(CCCC2=O)N1 (stereo not shown) [Compound 20, N-(2-Chlorophenyl)-4-isobutyl-2-methyl-5-oxo-1,4,5,6,7,8-hexahydroquinoline-3-carboxamide]
[5]
  GTPγS pEC50: 5.41 ± 0.13
  Emax: 105%
[4]
  Emax: 94%
  cAMP pEC50: 6.15 ± 0.06

## COc1ccccc1NC(=O)C1=C(C)NC2=C(C(=O)CCC2)C1c1ccco1 (stereo not shown) [Compound 15, 4-(Furan-2-yl)-N-(2-methoxyphenyl)-2-methyl-5-oxo-1,4,5,6,7,8-hexahydroquinoline-3-carboxamide]
[5]
  GTPγS pEC50: 4.71 ± 0.28
  Emax: 124%
[4]
  Emax: 99%
  cAMP pEC50: 6.43 ± 0.03
[4]; cAMP vs GTPγS data
  increased potency in cAMP assay versus GTPγS assay: 50 fold

## CCCC1C(C(=O)Nc2cc(OC)ccc2Cl)=C(C)NC2=C1C(=O)CCC2 (stereo not shown) [Compound 61, N-(2-Chloro-5-methoxyphenyl)-2-methyl-5-oxo-4-propyl-1,4,5,6,7,8-hexahydroquinoline-3-carboxamide]
[1]; phosphate buffered saline
  solubility: 157 µM (≈ 61.1 µg/mL)
[2]
  logD at 24 h: 3.07
[4]
  Emax: 96%
  cAMP pEC50: 5.96 ± 0.08
